Data from PMC7795729 (International Journal of Molecular Sciences, 2020).

Tests used:
[1] = biological target: T1, acetylcholinesterase (AChE from the electric eel) (Electrophorus electricus, UniProt O42275); assay: AChE in vitro inhibition assay (Ellman's method); type: biochemical
T1 construct: purchased Sigma-Aldrich
Procedure: Apart from its main function, this enzyme can efficiently hydrolyze a sulfur analogue of acetylcholine–acetylthiocholine. The products of this reaction are acetate and thiocholine, with the latter reacting with the highly reactive DNTB ion, generating a 5-thio-2-nitrobenzoate anion that has a yellow color and it can be detected by measuring the increase of absorbance at 412 nm. 3 mL of assay medium (phosphate buffer pH 7.4 + 150 µL DNTB 0.01 M + 30 µL AChE 2.0 units/mL) was put into cuvettes. The positive control was incubated at 37 °C for 15 min and then was added 150 µL of substrate (acetylthiocholine 0.01 M). […] After the addition of substrate to the assay medium, it was measured the increase in absorbance at 412 nm for 30 s intervals for 5 min (300 s) at 37 °C.
The absorbance was measured in the JENWAY 6300 Spectrophotometer. All conditions were made in triplicates. The value of the initial absorbance was subtracted to the value of the absorbance at 300 s and that was considered as the biological activity.

[2] = tested on: MCF-7 (breast cancer) cells; conditions: for IC50: read-out: IC50, MCF-7 cell viability, MTT, dose-response 1, 2.5, 5, 10, 20 and 25 µM, 24 h, triplicates, n = 3
Procedure: (§1) MCF-7 cells and SH-SY5Y cells were maintained in a culture flask (25 cm^2) with full growth medium DMEM supplemented with 10% FBS and penicillin and streptomycin (final concentration of 100 U/mL and 0.1 mg/mL, respectively) were kept in an incubator at 37 °C and 5% CO2. In the culture flask, the medium was changed at least twice a week, while trypsinization was done at least once a week. Trypsinization was made when there was more than 80% confluence of the monolayer and cell passages used were lower than 35.
(§2) For cytotoxicity evaluation, MCF-7 cells were seeded in 48-well plates at a density of 25 × 10^4 cells per well in a final volume of 250 µL of culture medium. Cells were given 24 h to attach before they were incubated with the compounds in the study. […] H2O and DMSO were used in control, with the volume added being the one used for each concentration.
The MTT assay can be used to assess the cell’s metabolic activity. MTT, a water-soluble compound, is reduced by the complex II of the mitochondrial respiratory chain to a water-insoluble blue formazan product. Only viable cells can metabolize MTT, so the metabolic activity is proportional to the quantity of formazans produced). After a 24 h incubation with the compounds in the study at 37 °C with 5% CO2, the cells were retrieved from the incubator and the medium was discarded. A previously warmed medium with MTT (0.5 mg/mL) was added (200 μL per well) and cells were maintained for 3 h at 37 °C and 5% CO2. Then the medium was aspirated again and DMSO (200 μL) was added to cause cellular lysis and solubilize the formazan crystals. The complete dissolution of the crystals was obtained by putting the plates on a shaking platform for 15 min, protected from light. The absorbance was read at 570 nm in a microplate reader (BioTeK Model Synergy HT, Winooski, VT, USA). Results were expressed as percentage of control cells.

[3] = tested on: SH-SY5Y (neuroblastoma) cells; assay: MTT reduction assay, SH-SY5Y cells; type: cell-based, human
Procedure: as §1
Cells were given 24 h to attach before they were incubated with the compounds in the study. The cells were treated with different concentrations (1, 2.5, 5, and 10 µM) of Tacrine, MAP, and Tacrine-MAP for 24 h with a final volume per well of 200 μL of complete medium. H2O and DMSO were used in control, with the volume added being the one used for each concentration. After the period of incubation, the MTT reduction was performed in both cell lines.
The MTT assay can be used to assess the cell’s metabolic activity. […] Only viable cells can metabolize MTT, so the metabolic activity is proportional to the quantity of formazans produced). […] The absorbance was read at 570 nm in a microplate reader (BioTeK Model Synergy HT, Winooski, VT, USA). Results were expressed as percentage of control cells.

[4] = tested on: MCF-7 cells; assay: Cell count analysis (Lionheart FX), MCF-7 cells; type: cell-based, human; conditions: 24 h incubation, n = 1
Procedure: as §2
(§3) After the treatments, cell morphology and growth were assessed by the contrast phase microscope Lionheart FX (Biotech, VT, USA) with the use of Gen5 software (Biotech, USA). The cell count of MCF-7 cells was assessed by Lionheart FX (Biotech, USA) using Gen5 software (Biotech, USA).

[5] = tested on: SH-SY5Y cells; assay: Cell count analysis (Lionheart FX), SH-SY5Y cells; type: cell-based, human; conditions: SH-SY5Y, 1, 2.5, 5 and 10 µM, 24 h incubation, n = 1
[6] = tested on: MCF-7 cells; assay: Cell morphology visualization (phase contrast, Lionheart FX), MCF-7 cells; type: cell-based, human; conditions: 24 h incubation; Tacrine all concentrations tested; MAP 5, 10, 20 and 25 μM; conjugate higher concentrations
Procedure: as §2, §3

[7] = tested on: MCF-7 cells; assay: Analysis of drug interactions (Chou-Talalay, CompuSyn); type: cell-based, human; conditions: n = 3
Procedure: To quantify the interaction of Tacrine and MAP in the conjugate, the dose-effect curves were estimated by the unified theory, introduced by Chou and Talalay using CompuSyn software (ComboSyn, Inc., New York, NY, USA). The dose was plotted on the y-axis as a function of effect level (Fa) on the x-axis to assess the drugs’ behavior. Experiments were conducted in triplicate (n = 3) with three replications.

[8] = cellular uptake kinetics; cited from earlier work
Excerpt: In view of the above, we decided to explore how the coupling of Tacrine with the cell-penetrating peptide (CPP) MAP might enhance its anti-cancer effect. CPPs are considered versatile carriers due to their unique ability to transport a wide range of molecules such as proteins, nucleic acids, contrast agents, drugs, and promote their intracellular delivery with limited toxicity. […] MAP (named after “model amphipathic peptide”) is an artificial ...

[9] = tested on: breast tumor cells (MCF-7); conditions: cited from earlier work
Excerpt: Drug combination is a strategy increasingly used in oncology because it allows taking advantage of the maximum therapeutic effect of two or more drugs, by combining different mechanisms of action, while reducing required doses and, consequently, side effects. Drug repurposing is another strategy that allows overcoming the disadvantages of the traditional development of novel anticancer drugs, by searching for new therapeutic uses for drugs already approved for other indications. This allows the reduction of costs related to the development of new drugs while promoting a faster route towards th ...

[10] = summary statement of the abstract

T1 sequence (O42275 24-633): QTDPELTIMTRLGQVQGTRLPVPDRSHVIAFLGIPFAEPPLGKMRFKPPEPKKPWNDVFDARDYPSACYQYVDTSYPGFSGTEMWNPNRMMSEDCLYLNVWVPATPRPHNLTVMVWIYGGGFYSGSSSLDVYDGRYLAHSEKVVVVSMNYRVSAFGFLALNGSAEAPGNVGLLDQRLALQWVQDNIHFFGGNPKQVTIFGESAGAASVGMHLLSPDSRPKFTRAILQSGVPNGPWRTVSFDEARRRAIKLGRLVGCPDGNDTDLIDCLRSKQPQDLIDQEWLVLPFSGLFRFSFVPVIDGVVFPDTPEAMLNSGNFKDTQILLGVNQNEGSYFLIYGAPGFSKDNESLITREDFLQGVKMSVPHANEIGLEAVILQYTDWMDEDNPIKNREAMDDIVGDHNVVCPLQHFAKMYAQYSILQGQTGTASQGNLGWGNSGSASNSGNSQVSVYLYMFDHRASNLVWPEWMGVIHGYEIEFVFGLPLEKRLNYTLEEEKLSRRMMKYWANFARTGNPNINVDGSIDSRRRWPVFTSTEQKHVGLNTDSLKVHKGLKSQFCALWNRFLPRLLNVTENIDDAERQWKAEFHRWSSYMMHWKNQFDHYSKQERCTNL

SMILES	IC50 [1] [nM]	IC50 [2] [nM]	Toxicity to MCF-7 cells (in words) [2, 10]	Toxicity to SH-SY5Y cells (in words) [3, 10]	Cell count (in words) ([4]; MCF-7, 1, 2.5, 5 and 10 µM)	Cell count (in words) ([4]; MCF-7, 20 and 25 µM)	Cell count (in words) [5]	Morphological changes of MCF-7 cells vs control (in words) [6]	Drug interaction of MAP and Tacrine in decreasing cell viability ([7]; higher doses)	Drug interaction of MAP and Tacrine in decreasing cell viability ([7]; lower doses of drug and peptide)	Cellular uptake among several CPP (in words) [8]	MTT reduction compared to control (in words) ([2]; MCF-7, 1, 2.5, 5 and 10 µM, 24 h incubation)	MTT reduction compared to control (in words) ([3]; SH-SY5Y, 1, 2.5, 5 and 10 µM, 24 h incubation)	Activity on MCF-7 cells (in words) ([9]; 50 µM, alone)	Cytotoxicity against MCF-7 cells in combination with 5-FU (in words) ([9]; combination with 5-Fluorouracil)
CC(C)C[C@H](NC(=O)[C@H](C)NC(=O)[C@H](CCCCN)NC(=O)[C@H](CC(C)C)NC(=O)[C@H](C)NC(=O)[C@H](CC(C)C)NC(=O)[C@H](CCCCN)NC(=O)[C@H](CC(C)C)NC(=O)[C@H](C)NC(=O)[C@H](CC(C)C)NC(=O)[C@H](CCCCN)NC(=O)[C@@H](N)Cc1cn(CC(=O)Nc2c3c(nc4ccccc24)CCCC3)nn1)C(=O)N[C@@H](CCCCN)C(=O)N[C@@H](C)C(=O)N[C@@H](C)C(=O)N[C@@H](CC(C)C)C(=O)N[C@@H](CCCCN)C(=O)N[C@@H](CC(C)C)C(=O)N[C@@H](C)C(N)=O [MAP-Tacrine conjugate]	6070	2730	highly toxic	highly toxic	significantly decreased cell count	severe drop in cell count	significantly decreased cell count	cell damage observed was similar to that caused by MAP alone	additive effect	synergistic effect	–	–	–	–	–
CC(C)C[C@H](NC(=O)[C@H](C)NC(=O)[C@H](CCCCN)NC(=O)[C@H](CC(C)C)NC(=O)[C@H](C)NC(=O)[C@H](CC(C)C)NC(=O)[C@H](CCCCN)NC(=O)[C@H](CC(C)C)NC(=O)[C@H](C)NC(=O)[C@H](CC(C)C)NC(=O)[C@@H](N)CCCCN)C(=O)N[C@@H](CCCCN)C(=O)N[C@@H](C)C(=O)N[C@@H](C)C(=O)N[C@@H](CC(C)C)C(=O)N[C@@H](CCCCN)C(=O)N[C@@H](CC(C)C)C(=O)N[C@@H](C)C(N)=O [MAP]	–	2720	–	–	–	–	–	–	–	–	fastest cellular uptake	–	–	–	–
Nc1c2c(nc3ccccc13)CCCC2 [Tacrine]	–	–	–	–	did not affect the number of cells in culture	no significant effects	did not affect the number of cells in culture	No significant differences in cell morphology	–	–	–	no significant differences	no significant differences	antiproliferative activity	increased the cytotoxicity
